Test results published in ChEMBL document CHEMBL4507304, “Data for DCP probe TP-021” (2021).

Assays:
[1] = target: Mitogen-activated protein kinase kinase kinase 5 (Homo sapiens) (UniProt Q99683); conditions: Compound concentration 1000.0 nM
[2] = target: Tyrosine-protein kinase receptor UFO (Homo sapiens) (UniProt P30530); conditions: Compound concentration 1000.0 nM
[3] = target: Tyrosine-protein kinase Blk (Homo sapiens) (UniProt P51451); conditions: Compound concentration 1000.0 nM
[4] = target: Protein-tyrosine kinase 6 (Homo sapiens) (UniProt Q13882); conditions: Compound concentration 1000.0 nM
[5] = target: Cyclin-dependent kinase-like 3 (Homo sapiens) (UniProt Q8IVW4); conditions: Compound concentration 1000.0 nM
[6] = target: Dual specificity protein kinase CLK4 (Homo sapiens) (UniProt Q9HAZ1); conditions: Compound concentration 1000.0 nM
[7] = target: Megakaryocyte-associated tyrosine-protein kinase (Homo sapiens) (UniProt P42679); conditions: Compound concentration 1000.0 nM
[8] = target: Death-associated protein kinase 3 (Homo sapiens) (UniProt O43293); conditions: Compound concentration 1000.0 nM
[9] = target: Serine/threonine-protein kinase DCLK1 (Homo sapiens) (UniProt O15075); conditions: Compound concentration 1000.0 nM
[10] = target: Myotonin-protein kinase (Homo sapiens) (UniProt Q09013); conditions: Compound concentration 1000.0 nM
[11] = test system: Epidermal growth factor receptor (Homo sapiens), P00533 [UNDEFINED MUTATION]; conditions: Compound concentration 1000.0 nM
[12] = test system: Epidermal growth factor receptor (Homo sapiens), P00533 [L858R]; conditions: Compound concentration 1000.0 nM
[13] = target: Ephrin type-A receptor 1 (Homo sapiens) (UniProt P21709); conditions: Compound concentration 1000.0 nM
[14] = target: Receptor tyrosine-protein kinase erbB-2 (Homo sapiens) (UniProt P04626); conditions: Compound concentration 1000.0 nM
[15] = test system: Receptor-type tyrosine-protein kinase FLT3 (Homo sapiens), P36888 [D835V]; conditions: Compound concentration 1000.0 nM
[16] = target: Tyrosine-protein kinase FRK (Homo sapiens) (UniProt P42685); conditions: Compound concentration 1000.0 nM
[17] = target: Beta-adrenergic receptor kinase 1 (Homo sapiens) (UniProt P25098); conditions: Compound concentration 1000.0 nM
[18] = target: Inhibitor of nuclear factor kappa-B kinase subunit epsilon (Homo sapiens) (UniProt Q14164); conditions: Compound concentration 1000.0 nM
[19] = target: Tyrosine-protein kinase Lck (Homo sapiens) (UniProt P06239); conditions: Compound concentration 1000.0 nM
[20] = target: Mitogen-activated protein kinase kinase kinase 13 (Homo sapiens) (UniProt O43283); conditions: Compound concentration 1000.0 nM
[21] = target: Mitogen-activated protein kinase kinase kinase 2 (Homo sapiens) (UniProt Q9Y2U5); conditions: Compound concentration 1000.0 nM
[22] = target: Microtubule-associated serine/threonine-protein kinase 1 (Homo sapiens) (UniProt Q9Y2H9); conditions: Compound concentration 1000.0 nM
[23] = target: Dual specificity mitogen-activated protein kinase kinase 3 (Homo sapiens) (UniProt P46734); conditions: Compound concentration 1000.0 nM
[24] = target: Muscle, skeletal receptor tyrosine-protein kinase (Homo sapiens) (UniProt O15146); conditions: Compound concentration 1000.0 nM
[25] = target: Myosin light chain kinase 2, skeletal/cardiac muscle (Homo sapiens) (UniProt Q9H1R3); conditions: Compound concentration 1000.0 nM
[26] = target: Myosin light chain kinase family member 4 (Homo sapiens) (UniProt Q86YV6); conditions: Compound concentration 1000.0 nM
[27] = target: Serine/threonine-protein kinase Nek10 (Homo sapiens) (UniProt Q6ZWH5); conditions: Compound concentration 1000.0 nM
[28] = target: Serine/threonine-protein kinase Nek4 (Homo sapiens) (UniProt P51957); conditions: Compound concentration 1000.0 nM
[29] = target: Serine/threonine-protein kinase NIM1 (Homo sapiens) (UniProt Q8IY84); conditions: Compound concentration 1000.0 nM
[30] = target: Mitogen-activated protein kinase 14 (Homo sapiens) (UniProt Q16539); conditions: Compound concentration 1000.0 nM
[31] = target: Mitogen-activated protein kinase 12 (Homo sapiens) (UniProt P53778); conditions: Compound concentration 1000.0 nM
[32] = target: Serine/threonine-protein kinase PAK 4 (Homo sapiens) (UniProt O96013); conditions: Compound concentration 1000.0 nM
[33] = target: 3-phosphoinositide-dependent protein kinase 1 (Homo sapiens) (UniProt O15530); conditions: Compound concentration 1000.0 nM
[34] = target: Cyclin-dependent kinase 15 (Homo sapiens) (UniProt Q96Q40); conditions: Compound concentration 1000.0 nM
[35] = target: Phosphatidylinositol 4,5-bisphosphate 3-kinase catalytic subunit gamma isoform (Homo sapiens) (UniProt P48736); conditions: Compound concentration 1000.0 nM
[36] = target: 1-phosphatidylinositol 3-phosphate 5-kinase (Homo sapiens) (UniProt Q9Y2I7); conditions: Compound concentration 1000.0 nM
[37] = target: Serine/threonine-protein kinase PLK3 (Homo sapiens) (UniProt Q9H4B4); conditions: Compound concentration 1000.0 nM
[38] = target: Serine/threonine-protein kinase D1 (Homo sapiens) (UniProt Q15139); conditions: Compound concentration 1000.0 nM
[39] = target: Ribosomal protein S6 kinase alpha-5 (Homo sapiens) (UniProt O75582); conditions: Compound concentration 1000.0 nM
[40] = target: Serine/threonine-protein kinase TAO1 (Homo sapiens) (UniProt Q7L7X3); conditions: Compound concentration 1000.0 nM
[41] = target: TGF-beta receptor type-1 (Homo sapiens) (UniProt P36897); conditions: Compound concentration 1000.0 nM
[42] = target: TGF-beta receptor type-2 (Homo sapiens) (UniProt P37173); conditions: Compound concentration 1000.0 nM
[43] = target: BDNF/NT-3 growth factors receptor (Homo sapiens) (UniProt Q16620); conditions: Compound concentration 1000.0 nM
[44] = target: Dual specificity protein kinase TTK (Homo sapiens) (UniProt P33981); conditions: Compound concentration 1000.0 nM
[45] = target: Alpha-2B adrenergic receptor (Homo sapiens) (UniProt P18089); conditions: Compound concentration 10.0 uM

Chain of Serine/threonine-protein kinase Nek4 (Homo sapiens) (P51957 whole entry, looked up): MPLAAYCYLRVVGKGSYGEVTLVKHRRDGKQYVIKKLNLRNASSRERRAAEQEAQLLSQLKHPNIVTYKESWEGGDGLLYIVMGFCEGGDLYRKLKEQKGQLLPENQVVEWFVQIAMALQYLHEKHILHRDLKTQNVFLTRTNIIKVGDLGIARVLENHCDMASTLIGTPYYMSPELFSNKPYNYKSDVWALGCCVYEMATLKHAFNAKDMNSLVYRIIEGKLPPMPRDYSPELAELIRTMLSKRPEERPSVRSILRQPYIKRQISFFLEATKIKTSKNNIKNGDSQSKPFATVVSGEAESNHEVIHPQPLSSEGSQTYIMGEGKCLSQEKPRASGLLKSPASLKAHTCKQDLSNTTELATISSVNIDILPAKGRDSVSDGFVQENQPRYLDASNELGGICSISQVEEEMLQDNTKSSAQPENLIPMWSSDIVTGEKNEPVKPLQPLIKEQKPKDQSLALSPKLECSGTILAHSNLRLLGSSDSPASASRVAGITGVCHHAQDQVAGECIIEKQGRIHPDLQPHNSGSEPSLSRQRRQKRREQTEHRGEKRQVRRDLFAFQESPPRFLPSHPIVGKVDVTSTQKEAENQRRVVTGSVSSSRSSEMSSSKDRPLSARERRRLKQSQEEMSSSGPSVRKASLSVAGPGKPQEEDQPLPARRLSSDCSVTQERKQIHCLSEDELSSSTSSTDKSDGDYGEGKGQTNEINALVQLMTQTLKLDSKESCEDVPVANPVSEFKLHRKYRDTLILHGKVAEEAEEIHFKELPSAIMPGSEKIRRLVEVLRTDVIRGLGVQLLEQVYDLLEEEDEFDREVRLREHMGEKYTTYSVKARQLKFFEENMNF
Chain of Ephrin type-A receptor 1 (Homo sapiens) (P21709 whole entry): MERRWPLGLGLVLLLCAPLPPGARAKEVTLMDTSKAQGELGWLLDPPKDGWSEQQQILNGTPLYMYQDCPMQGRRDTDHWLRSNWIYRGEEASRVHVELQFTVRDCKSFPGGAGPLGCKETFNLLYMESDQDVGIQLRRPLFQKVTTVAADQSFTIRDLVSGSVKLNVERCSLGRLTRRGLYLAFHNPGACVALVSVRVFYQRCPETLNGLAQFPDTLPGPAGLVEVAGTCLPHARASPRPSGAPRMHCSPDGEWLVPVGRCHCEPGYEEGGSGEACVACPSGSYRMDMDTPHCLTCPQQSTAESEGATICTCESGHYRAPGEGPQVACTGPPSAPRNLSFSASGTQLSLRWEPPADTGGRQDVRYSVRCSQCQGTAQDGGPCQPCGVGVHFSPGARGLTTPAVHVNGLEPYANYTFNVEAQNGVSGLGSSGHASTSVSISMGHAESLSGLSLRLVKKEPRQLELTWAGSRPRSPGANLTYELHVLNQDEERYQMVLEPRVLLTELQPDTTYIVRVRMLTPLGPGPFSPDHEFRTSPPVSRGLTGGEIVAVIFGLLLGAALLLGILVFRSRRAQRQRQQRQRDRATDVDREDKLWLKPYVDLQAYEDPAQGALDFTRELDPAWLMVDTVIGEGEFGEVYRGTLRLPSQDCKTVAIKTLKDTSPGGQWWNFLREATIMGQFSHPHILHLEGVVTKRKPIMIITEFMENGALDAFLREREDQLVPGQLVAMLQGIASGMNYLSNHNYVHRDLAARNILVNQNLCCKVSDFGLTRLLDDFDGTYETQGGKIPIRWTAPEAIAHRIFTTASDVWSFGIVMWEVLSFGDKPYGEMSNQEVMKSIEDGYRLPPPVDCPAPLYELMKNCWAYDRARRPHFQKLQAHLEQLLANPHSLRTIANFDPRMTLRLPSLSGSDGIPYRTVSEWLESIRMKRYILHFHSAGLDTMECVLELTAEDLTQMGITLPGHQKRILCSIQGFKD
Chain of Serine/threonine-protein kinase TAO1 (Homo sapiens) (Q7L7X3 whole entry): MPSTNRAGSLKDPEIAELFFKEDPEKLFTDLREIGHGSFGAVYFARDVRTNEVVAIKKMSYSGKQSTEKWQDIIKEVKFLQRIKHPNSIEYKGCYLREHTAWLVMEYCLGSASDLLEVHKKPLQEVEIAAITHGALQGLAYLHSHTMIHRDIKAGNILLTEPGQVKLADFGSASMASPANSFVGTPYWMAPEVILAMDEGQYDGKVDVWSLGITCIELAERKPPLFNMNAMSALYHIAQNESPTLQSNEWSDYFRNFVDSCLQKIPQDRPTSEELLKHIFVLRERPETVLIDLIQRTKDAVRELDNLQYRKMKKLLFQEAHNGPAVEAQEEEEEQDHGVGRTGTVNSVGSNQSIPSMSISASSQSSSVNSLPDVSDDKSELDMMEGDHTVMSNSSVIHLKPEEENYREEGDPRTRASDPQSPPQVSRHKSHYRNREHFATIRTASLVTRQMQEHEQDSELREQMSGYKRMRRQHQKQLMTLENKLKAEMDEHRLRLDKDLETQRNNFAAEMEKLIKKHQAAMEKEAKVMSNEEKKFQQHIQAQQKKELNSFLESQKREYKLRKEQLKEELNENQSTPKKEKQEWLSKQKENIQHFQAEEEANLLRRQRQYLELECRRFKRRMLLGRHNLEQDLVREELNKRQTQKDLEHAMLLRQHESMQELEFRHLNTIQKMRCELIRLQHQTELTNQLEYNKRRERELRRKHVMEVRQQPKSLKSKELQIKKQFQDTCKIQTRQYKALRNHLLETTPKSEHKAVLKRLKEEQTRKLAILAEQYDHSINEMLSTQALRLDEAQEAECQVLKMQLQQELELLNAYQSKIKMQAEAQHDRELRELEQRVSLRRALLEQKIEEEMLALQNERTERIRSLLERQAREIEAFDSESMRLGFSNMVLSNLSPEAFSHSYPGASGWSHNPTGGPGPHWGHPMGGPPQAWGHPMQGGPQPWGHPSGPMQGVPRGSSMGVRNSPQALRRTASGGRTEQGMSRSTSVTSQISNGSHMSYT
Chain of Dual specificity protein kinase TTK (Homo sapiens) (P33981 whole entry): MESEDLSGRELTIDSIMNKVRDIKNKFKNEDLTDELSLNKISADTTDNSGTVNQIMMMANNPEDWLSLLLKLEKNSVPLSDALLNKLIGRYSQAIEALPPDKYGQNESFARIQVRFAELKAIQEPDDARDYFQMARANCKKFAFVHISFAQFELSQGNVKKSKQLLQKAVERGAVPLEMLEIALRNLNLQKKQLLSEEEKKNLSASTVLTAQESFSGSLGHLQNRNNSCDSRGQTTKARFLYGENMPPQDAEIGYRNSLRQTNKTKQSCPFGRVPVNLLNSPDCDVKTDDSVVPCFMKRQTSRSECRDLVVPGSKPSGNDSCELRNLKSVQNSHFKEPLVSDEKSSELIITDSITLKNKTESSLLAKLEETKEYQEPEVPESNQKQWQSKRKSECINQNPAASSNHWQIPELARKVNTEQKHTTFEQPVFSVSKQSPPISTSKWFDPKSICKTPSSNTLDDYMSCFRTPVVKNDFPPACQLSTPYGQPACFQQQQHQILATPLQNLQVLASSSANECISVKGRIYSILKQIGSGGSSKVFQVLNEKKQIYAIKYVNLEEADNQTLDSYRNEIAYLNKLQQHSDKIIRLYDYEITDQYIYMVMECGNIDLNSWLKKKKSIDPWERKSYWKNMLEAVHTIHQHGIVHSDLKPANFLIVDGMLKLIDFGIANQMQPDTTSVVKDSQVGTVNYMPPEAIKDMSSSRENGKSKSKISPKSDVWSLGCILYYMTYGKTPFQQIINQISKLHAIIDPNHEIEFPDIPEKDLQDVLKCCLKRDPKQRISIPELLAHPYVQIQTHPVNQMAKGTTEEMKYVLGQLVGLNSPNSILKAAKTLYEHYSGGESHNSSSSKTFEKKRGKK
Chain of Serine/threonine-protein kinase DCLK1 (Homo sapiens) (O15075 whole entry): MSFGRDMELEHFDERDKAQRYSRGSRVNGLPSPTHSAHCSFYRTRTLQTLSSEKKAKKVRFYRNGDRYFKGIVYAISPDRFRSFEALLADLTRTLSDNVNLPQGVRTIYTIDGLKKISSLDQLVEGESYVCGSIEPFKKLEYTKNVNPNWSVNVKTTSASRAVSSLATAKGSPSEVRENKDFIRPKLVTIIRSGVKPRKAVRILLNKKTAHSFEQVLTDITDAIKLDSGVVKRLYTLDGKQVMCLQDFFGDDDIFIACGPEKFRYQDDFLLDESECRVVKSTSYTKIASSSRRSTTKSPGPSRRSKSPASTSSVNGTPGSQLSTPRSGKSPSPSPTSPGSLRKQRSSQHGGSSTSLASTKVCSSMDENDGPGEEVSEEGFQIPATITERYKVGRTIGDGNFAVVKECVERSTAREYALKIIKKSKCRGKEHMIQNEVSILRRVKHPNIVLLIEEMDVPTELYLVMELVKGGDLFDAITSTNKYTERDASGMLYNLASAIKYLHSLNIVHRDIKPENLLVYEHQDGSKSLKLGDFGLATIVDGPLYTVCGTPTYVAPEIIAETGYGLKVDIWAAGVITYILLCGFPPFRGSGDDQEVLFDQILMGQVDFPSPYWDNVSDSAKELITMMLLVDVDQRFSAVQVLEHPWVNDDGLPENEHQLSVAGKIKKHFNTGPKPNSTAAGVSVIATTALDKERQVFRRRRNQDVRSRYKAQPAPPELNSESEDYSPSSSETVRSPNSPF
Chain of Death-associated protein kinase 3 (Homo sapiens) (O43293 whole entry, looked up): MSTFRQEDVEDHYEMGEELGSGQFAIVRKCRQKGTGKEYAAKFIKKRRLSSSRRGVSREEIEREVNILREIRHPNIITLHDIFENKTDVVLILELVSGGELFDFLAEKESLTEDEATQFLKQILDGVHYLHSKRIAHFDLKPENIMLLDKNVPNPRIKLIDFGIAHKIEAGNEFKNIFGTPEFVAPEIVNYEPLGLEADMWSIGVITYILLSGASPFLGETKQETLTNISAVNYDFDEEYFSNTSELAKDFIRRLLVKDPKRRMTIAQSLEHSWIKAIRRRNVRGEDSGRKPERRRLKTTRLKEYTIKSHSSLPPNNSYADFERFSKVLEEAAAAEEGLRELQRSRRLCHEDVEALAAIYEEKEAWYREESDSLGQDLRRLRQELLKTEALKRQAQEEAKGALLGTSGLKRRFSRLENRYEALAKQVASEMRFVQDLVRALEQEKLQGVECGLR

N#Cc1ccc(Nc2ccc3[nH]c(=O)[nH]c3c2)c(Cl)c1
inactive: residual activity [1] 90% | residual activity [2] 100% | residual activity [3] 97% | residual activity [4] 100% | residual activity [5] 80% | residual activity [6] 98% | residual activity [7] 100% | residual activity [8] 92% | residual activity [9] 84% | residual activity [10] 81% | residual activity [11] 100% | residual activity [12] 100% | residual activity [13] 91% | residual activity [14] 100% | residual activity [15] 100% | residual activity [16] 73% | residual activity [17] 100% | residual activity [18] 100% | residual activity [19] 100% | residual activity [20] 100% | residual activity [21] 100% | residual activity [22] 100% | residual activity [23] 75% | residual activity [24] 100% | residual activity [25] 99% | residual activity [26] 100% | residual activity [27] 100% | residual activity [28] 100% | residual activity [29] 100% | residual activity [30] 93% | residual activity [31] 100% | residual activity [32] 92% | residual activity [33] 97% | residual activity [34] 94% | residual activity [35] 92% | residual activity [36] 82% | residual activity [37] 84% | residual activity [38] 82% | residual activity [39] 100% | residual activity [40] 97% | residual activity [41] 100% | residual activity [42] 100% | residual activity [43] 100% | residual activity [44] 88% | inhibition [45] 13.1%

O=C1CCc2cc(Nc3cc(OC4CCOCC4)c([N+](=O)[O-])cc3Cl)ccc2N1
inactive: residual activity [1] 84% | residual activity [2] 96% | residual activity [3] 94% | residual activity [4] 100% | residual activity [5] 79% | residual activity [6] 88% | residual activity [7] 100% | residual activity [8] 91% | residual activity [9] 95% | residual activity [10] 96% | residual activity [11] 92% | residual activity [12] 100% | residual activity [13] 81% | residual activity [14] 100% | residual activity [15] 70% | residual activity [16] 73% | residual activity [17] 87% | residual activity [18] 90% | residual activity [19] 100% | residual activity [20] 91% | residual activity [21] 100% | residual activity [22] 100% | residual activity [23] 86% | residual activity [24] 100% | residual activity [25] 90% | residual activity [26] 96% | residual activity [27] 100% | residual activity [28] 100% | residual activity [29] 100% | residual activity [30] 100% | residual activity [31] 100% | residual activity [32] 100% | residual activity [33] 100% | residual activity [34] 73% | residual activity [35] 75% | residual activity [36] 83% | residual activity [37] 88% | residual activity [38] 87% | residual activity [39] 86% | residual activity [40] 81% | residual activity [41] 100% | residual activity [42] 98% | residual activity [43] 100% | residual activity [44] 87% | inhibition [45] -0.04%
